Measured values taken from patent publication US12043600B2, “Microbiocidal compounds” (SYNGENTA CROP PROTECTION AG, priority 2018, dated 2024).

How the values were obtained:
[1] = system: Puccinia recondita f. sp. tritici; test: Puccinia recondita f. sp. tritici/Wheat/Leaf Disc Preventative (Brown Rust); format: in vivo; conditions: foliar, 200 ppm, wheat leaf disc preventative, compared to untreated control, read-out: control of Puccinia recondita f. sp. tritici
[2] = system: Monographella nivalis (Microdochium nivale); test: Monographella nivalis (Microdochium nivale)/Liquid Culture (Foot Rot Cereals); format: cell-based; conditions: liquid culture, compared to untreated control
How it was run: (§1)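 First, the test compound in DMSO is placed in the wells. Next, potato dextrose broth seeded with conidia taken straight from cryogenic storage is added, and the culture is left to grow.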

[3] = system: Glomerella lagenarium (Colletotrichum lagenarium); test: Glomerella lagenarium (Colletotrichum lagenarium)/Liquid Culture (Anthracnose); format: cell-based; conditions: Colletotrichum orbiculare, liquid culture, compared to untreated control
[4] = system: Sclerotinia sclerotiorum; test: Sclerotinia sclerotiorum/Liquid Culture (Cottony Rot); format: cell-based; conditions: liquid culture, compared to untreated control
Method: Mycelia fragments of a newly grown liquid culture of the fungus are directly mixed into nutrient broth (PDB potato dextrose broth). After placing a (DMSO) solution of test compound into a microtiter plate (96-well format) the nutrient broth containing the fungal material is added.

[5] = system: Plasmopara viticola; test: whole plant or invertebrate; format: in vivo; conditions: foliar, read-out: control of Plasmopara viticola
[6] = system: Phaeosphaeria nodorum (Septoria nodorum); test: Phaeosphaeria nodorum (Septoria nodorum)/Wheat/Leaf Disc Preventative (Glume Blotch); format: in vivo; conditions: Parastagonospora nodorum, foliar, wheat leaf disc preventative, compared to untreated control
How it was run: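 Wheat cv. Kanzler leaf discs on agar were sprayed with formulated compound diluted in water and inoculated with P. nodorum spores 2 days later. Discs kept at 20 °C, 75% rh, 12 h light/dark; percent disease control versus untreated scored 5–7 days after application.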

[7] = system: Puccinia recondita f. sp. tritici; test: Puccinia recondita f. sp. tritici/Wheat/Leaf Disc Curative (Brown Rust); format: in vivo; conditions: foliar, wheat leaf disc curative, compared to untreated control
How it was run: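 Curative leaf-disc test on wheat cv. Kanzler segments on agar, spore-inoculated and kept dark at 19° C, 75% rh; formulated compound in water applied 1 day after inoculation. Incubated at 19° C, 75% rh, 12 h light/12 h dark; percent disease control versus untreated scored 6-8 days after application.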

[8] = system: Mycosphaerella graminicola (Septoria tritici); test: Mycosphaerella graminicola (Septoria tritici)/Liquid Culture (Septoria Blotch); format: cell-based; conditions: Zymoseptoria tritici; 20 ppm; liquid culture; compared to untreated control
How it was run: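 Conidia from cryogenic storage mixed into potato dextrose broth and added to microtiter wells already holding DMSO solutions of test compound. Activity expressed as percentage disease control.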

[9] = system: Mycosphaerella arachidis (Cercospora arachidicola); test: Mycosphaerella arachidis (Cercospora arachidicola)/Liquid Culture (Early Leaf Spot); format: cell-based; conditions: liquid culture, compared to untreated control
How it was run: as §1

[10] = system: Magnaporthe grisea (Pyricularia oryzae); test: whole plant or invertebrate; format: in vivo; conditions: foliar, read-out: control of Magnaporthe grisea
[11] = system: Blumeria graminis f. sp. tritici (Erysiphe graminis f. sp. tritici); test: Blumeria graminis f. sp. tritici/Wheat/Leaf Disc Preventative (Powdery Mildew on Wheat); format: in vivo; conditions: foliar, wheat leaf disc preventative, compared to untreated control
How it was run: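 Wheat cv. Kanzler leaf segments on agar sprayed with formulated compound, inoculated with powdery mildew 1 day later and held at 20° C, 60% rh (24 h dark, then 12 h light/12 h dark). Percent disease control versus untreated scored 6-8 days after application.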

[12] = system: Thanatephorus cucumeris (Rhizoctonia solani); test: Thanatephorus cucumeris (Rhizoctonia solani)/Liquid Culture (Foot Rot, Damping-Off); format: cell-based; conditions: liquid culture, compared to untreated control
Method: Mycelia fragments of a newly grown liquid culture of the fungus are directly mixed into nutrient broth (PDB potato dextrose broth). After placing a (DMSO) solution of the test compounds into a microtiter plate (96-well format), the nutrient broth containing the fungal material is added.

[13] = system: Botryotinia fuckeliana (Botrytis cinerea); test: Botryotinia fuckeliana (Botrytis cinerea)/Liquid Culture (Gray Mould); format: cell-based; conditions: liquid culture, compared to untreated control
Method: Conidia of the fungus from cryogenic storage are directly mixed into nutrient broth (Vogels broth). After placing a (DMSO) solution of test compound into a microtiter plate (96-well format), the nutrient broth containing the fungal spores is added.

[14] = Photostability assay (Atlas Suntest); format: physicochemical; conditions: Suntest 750 W/m^2, spotted on microscope slides
Method: The testing method to measure the photostability data of each compound in table is D1 is as specifically described below. The objective of the photostability assay was to determine the stability of the individual test compounds in a strictly controlled and reproducible environment allowing a comparison of their photostability.
Method: Compounds were dissolved in methanol (HPLC grade) to give 1 g/L stock solutions. Compound stock solution (2 μl) was spotted onto microscope slides in a 3D printed holder and put into the Atlas Suntest. The spectral output power of the Suntest was set to 750 W/m^2, which is considered typical of the daily maximum (noon) irradiance level on a very bright British Summer day. At specific time points slides were removed from the Suntest and placed in 4D vials. Wash solvent made up of 50:40:10 H2O:MeCN:THF (1 mL) is then added to the vials and whirlimixed. The resulting solution is then subsampled to an HPLC vial to be analysed. A Waters UPLC system with Photodiode Array was used with a Waters reverse phase column (BEH C18, 100×2.1 mm×1.7 μm) and acetonitrile (HPLC grade) acidified water (0.2% formic acid) mobile phase at a flow rate of 0.6 mL/min. Peak detection was at the optimum wavelength and peak areas were used for quantification
Initial and subsequent measurements of peak area attributable to the test compound were used to provide a % parent remaining at 3 hours.

[15] = system: Pyrenophora teres; test: Pyrenophora teres/Barley/Leaf Disc Preventative (Net Blotch); format: in vivo; conditions: foliar, 200 ppm, barley leaf disc preventative, compared to untreated control, read-out: control of Pyrenophora teres
How it was run: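 Formulated compound, diluted in water, sprayed onto barley cv. Hasso leaf segments on agar; spore suspension inoculation followed 2 days after application. Results expressed as percentage disease control.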

[16] = system: Phytophthora infestans; test: whole plant or invertebrate; format: in vivo; conditions: in Solanum lycopersicum, foliar, read-out: control of Phytophthora infestans
[17] = system: Phakopsora pachyrhizi; test: Phakopsora pachyrhizi/Soybean/Preventative (Soybean Rust); format: in vivo; conditions: foliar, 288 h, 200 ppm, soybean leaf disc preventative, compared to untreated control, read-out: control of Phakopsora pachyrhizi

SMILES | pest or weed control at 200 ppm [1] [%] | inhibition of growth at 20 ppm [2] [%] | melting point [°C] | inhibition of growth at 20 ppm [3] [%] | inhibition of growth at 20 ppm [4] [%] | pest or weed control at 200 ppm [5] [%] | pest or weed control at 200 ppm [6] [%] | pest or weed control at 200 ppm [7] [%] | inhibition of growth at 20 ppm [8] [%] | inhibition of growth at 20 ppm [9] [%] | pest or weed control at 200 ppm [10] [%] | pest or weed control at 200 ppm [11] [%] | inhibition of growth at 20 ppm [12] [%] | inhibition of growth at 20 ppm [13] [%] | % Parent Remaining @ 3 hrs [14] [%] | pest or weed control at 200 ppm [15] [%] | pest or weed control at 200 ppm [16] [%] | pest or weed control at 200 ppm [17] [%]
CCCCc1cnn(-c2ccc(C)c(O/C(=C\OC)C(=O)OC)c2)n1 [Compound F-3, methyl (Z)-2-[5-(4-butyltriazol-2-yl)-2-methyl-phenoxy]-3-methoxy-prop-2-enoate] | ≥ 80 | ≥ 80 | 68 to 70 | ≥ 80 | ≥ 80 | ≥ 80 | ≥ 80 | ≥ 80 | ≥ 80 | ≥ 80 | ≥ 80 | – | – | – | – | – | – | –
CO/C=C(\Oc1cc(-n2cc(Br)c(C)n2)ccc1C)C(=O)OC [Compound E-117, methyl (Z)-2-[5-(4-bromo-3-methyl-pyrazol-1-yl)-2-methyl-phenoxy]-3-methoxy-prop-2-enoate] | ≥ 80 | ≥ 80 | 120 to 122 | ≥ 80 | ≥ 80 | ≥ 80 | – | ≥ 80 | ≥ 80 | ≥ 80 | – | ≥ 80 | – | – | – | – | – | –
CO/C=C(\Oc1cc(-n2ccc(C(F)(F)F)n2)c(F)cc1C)C(=O)OC [Compound E-42, methyl (Z)-2-[4-fluoro-2-methyl-5-[3-(trifluoromethyl)pyrazol-1-yl]phenoxy]-3-methoxy-prop-2-enoate] | ≥ 80 | ≥ 80 | 104 to 108 | ≥ 80 | – | ≥ 80 | ≥ 80 | ≥ 80 | ≥ 80 | ≥ 80 | ≥ 80 | ≥ 80 | ≥ 80 | ≥ 80 | 24 | ≥ 80 | – | –
CO/C=C(\Oc1cc(-n2ccc(C(F)(F)F)n2)cc(C)c1C)C(=O)OC [Compound E-19, methyl (Z)-2-[2,3-dimethyl-5-[3-(trifluoromethyl)pyrazol-1-yl]phenoxy]-3-methoxy-prop-2-enoate] | ≥ 80 | ≥ 80 | 144 to 146 | ≥ 80 | ≥ 80 | ≥ 80 | ≥ 80 | – | ≥ 80 | ≥ 80 | ≥ 80 | ≥ 80 | – | – | – | – | ≥ 80 | –
CO/C=C(\Oc1cc(-n2ccc(C3CCC3)n2)c(F)cc1C)C(=O)OC [Compound E-18, methyl (Z)-2-[5-(3-cyclobutylpyrazol-1-yl)-4-fluoro-2-methyl-phenoxy]-3-methoxy-prop-2-enoate] | ≥ 80 | ≥ 80 | – | ≥ 80 | ≥ 80 | ≥ 80 | – | ≥ 80 | ≥ 80 | ≥ 80 | ≥ 80 | ≥ 80 | – | – | – | – | ≥ 80 | –
CO/C=C(\Oc1cc(-n2ccc(C(C)C)n2)cc(C)c1C)C(=O)OC [Compound E-20, methyl (Z)-2-[5-(3-isopropylpyrazol-1-yl)-2,3-dimethyl-phenoxy]-3-methoxy-prop-2-enoate] | ≥ 80 | ≥ 80 | 103 to 105 | ≥ 80 | ≥ 80 | ≥ 80 | ≥ 80 | ≥ 80 | ≥ 80 | ≥ 80 | ≥ 80 | – | – | – | – | – | ≥ 80 | ≥ 50
